Reference: PMC9544171, “Glucose‐dependent insulinotropic polypeptide receptor antagonist treatment causes a reduction in weight gain in ovariectomised high fat diet‐fed mice” (British Journal of Pharmacology, 2022)
Where a SMILES comes first, the peptide text is derived from it. The star is where a group is joined. C16 diacid = O=C(O)CCCCCCCCCCCCCCC(=O)*

Assays:
[1] = biological target: T1, human GIP receptor (Homo sapiens, UniProt P48546); test: cAMP accumulation, agonism (intrinsic activity) in transfected COS‐7 cells; type: cell-based; conditions: increasing concentrations of ligand alone, 30 min, COS‐7, n = 5
T1 construct: host or cells: COS-7
T1 sequence (P48546 22-466): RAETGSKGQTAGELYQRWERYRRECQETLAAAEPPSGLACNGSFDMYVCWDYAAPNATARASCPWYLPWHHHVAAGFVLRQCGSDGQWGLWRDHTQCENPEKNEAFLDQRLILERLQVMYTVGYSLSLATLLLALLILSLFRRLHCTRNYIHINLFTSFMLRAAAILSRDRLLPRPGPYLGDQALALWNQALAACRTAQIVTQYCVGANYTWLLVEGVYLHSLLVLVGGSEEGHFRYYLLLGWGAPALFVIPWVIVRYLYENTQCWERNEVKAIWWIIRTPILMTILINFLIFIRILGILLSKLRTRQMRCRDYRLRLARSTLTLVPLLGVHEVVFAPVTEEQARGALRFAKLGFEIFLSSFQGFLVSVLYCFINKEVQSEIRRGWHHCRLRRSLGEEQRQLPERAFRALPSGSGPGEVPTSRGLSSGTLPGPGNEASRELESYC
Experimental: (§1) COS‐7 cells were cultured at 10% CO2 and 37°C in Dulbecco's Modified Eagle Medium 1885 supplemented with 10% foetal bovine serum, 2‐mM glutamine, 180‐units ml^−1 penicillin and […] streptomycin. Transient transfection of the cells with either human or mouse GIP receptor was performed using the calcium phosphate precipitation method as previously described (van der Velden et al., [2021]). A second set of cells was transiently transfected with either mouse GLP‐1 or GLP‐2 receptor. Following the day after transfection, the cells were seeded in white 96‐well plates with a density of 35.000 cells per well. The next day the assay was initiated by washing the cells with HEPES buffered saline (HBS) followed by an incubation step with HBS and 1‐mM 3‐isobutyl‐1‐methylxanthine for 30 min at 37°C. For agonist studies, the ligands were then added and incubated for an additional 30 min at 37°C. To test for antagonistic properties, the cells were first preincubated for 10 min with the antagonist with subsequent addition of the agonist and incubated for an additional 20 min. The HitHunter® cAMP assay (Eurofins DiscoverX, Fremont, USA) was carried out according to the manufacturer's protocol. Luminescence was measured by PerkinElmer™ Envision 2014 Multilabel Reader.
(§2) To facilitate comparisons of assay outputs (cAMP assays), the results (of duplicate measurements) were normalized, with the response to 10 pM of GIP(1‐42) set as 100%. All ligand concentrations are reported as log‐transformed. The IC50 log values can be found in Figure 1. In Figure 3c, we have subtracted glucose levels from baseline to show the net differences in glucose levels in our different treatment groups.
(§3) FIGURE 1 In vitro signalling profile of mGIPAnt‐1 on the mouse and human glucose‐dependent insulinotropic polypeptide receptor/(GIPR). COS‐7 cells were transiently transfected with (a) mouse GIPR or (b) human GIPR and assayed for cAMP accumulation. To test for agonism, increasing concentration of the ligand was added. […]

[2] = biological target: T2, mouse GIP receptor (Mus musculus, UniProt Q0P543); test: as above; type: cell-based; conditions: increasing concentrations of ligand alone, 30 min, COS‐7, n = 5
T2 construct: host or cells: COS-7
T2 sequence (Q0P543 19-460): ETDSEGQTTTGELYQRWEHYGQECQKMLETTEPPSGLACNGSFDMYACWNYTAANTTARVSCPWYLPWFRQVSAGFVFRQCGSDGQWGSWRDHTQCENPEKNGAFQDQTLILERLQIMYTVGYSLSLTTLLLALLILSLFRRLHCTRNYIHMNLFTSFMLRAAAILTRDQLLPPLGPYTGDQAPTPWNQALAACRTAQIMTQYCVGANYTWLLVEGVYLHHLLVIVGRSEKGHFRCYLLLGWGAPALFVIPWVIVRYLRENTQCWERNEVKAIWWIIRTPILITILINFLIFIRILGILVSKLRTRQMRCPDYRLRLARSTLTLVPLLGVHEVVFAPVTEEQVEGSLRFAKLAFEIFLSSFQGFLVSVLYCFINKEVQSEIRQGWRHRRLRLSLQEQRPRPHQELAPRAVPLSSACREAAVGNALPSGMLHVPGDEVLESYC
Experimental: as §1, §2, §3

[3] = test system: Female ovariectomised C57Bl6/J mice; test: HFD study in ovariectomised mice, body weight and composition, 8 weeks; type: in vivo, mouse
Experimental: Prior to bilateral ovariectomy surgery and once daily for 48 h following, mice received analgesics through s.c. injection of carprofen (Rimadyl; 5 mg·kg^−1). Anaesthesia was induced in an induction chamber with 5% isoflurane and maintained with 2% isoflurane through a nose cone during the procedure. Proper respiration was ensured with a flow of oxygen through the nose cone and body temperature was maintained at 37°C by placing the mice on a heating pad. Mice were placed in a prone position on a sterile surgery pad and the area of incision was shaved and sterilized with 70% ethanol. Two dorsal‐lateral incisions were made and the ovary and attached fat pad were individually pulled out of the abdominal cavity. The fallopian tubes were ligated and the ovaries were dissected, then the fat pad was carefully placed back in the abdominal cavity. The skin incision was closed using wound clips (Reflex, Alzet, Cupertino, CA, USA). In half of the animals, a microtransponder (Datamars, Lamone, Switzerland) was inserted and animals were placed in an HM‐2 cage with the intention to measure food intake (MBrose, Faaborg, Denmark) and left to recover and acclimatize for a week. The remaining animals were placed back in their home cages to recover for a week. The division of mice into HM‐2 cages and home cages was randomized. Uterine atrophy was confirmed in all mice upon termination of the study, indicating successful ovariectomy.
A week after ovariectomy, at 10 weeks of age, animals were randomized into groups and placed on a 60 kcal% HFD (HFD, D12492, Research Diets, New Brunswick, NJ, USA) or a control diet (10 kcal% fat, D12450J, Research Diets) for 8 weeks. Group sizes were as follows: Vehicle/control diet, n = 12; mGIPAnt‐1/control diet, n = 12; Vehicle/HFD, n = 11; mGIPAnt‐1/HFD, n = 12. The reduction of animal numbers in group Vehicle/HFD was due to unexpected loss of an animal. Animals received a daily s.c. injection at 4:30 PM with mGIPAnt‐1 (300‐nmol·kg^−1) or vehicle. Body weight and body composition were assessed weekly (LF90II body composition analyzer, Bruker, Billerica, MA, USA). On the final experimental day, animals were anaesthetized with an intraperitoneal injection of 90 mg·kg^−1 ketamine and 10‐mg·kg^−1 xylazine. The microchip was quickly removed from HM‐2 cage animals and a final body composition measurement was performed on all animals. A terminal retro‐orbital blood sample was taken, mice were killed through cervical dislocation and tissues were quickly dissected and weighed.

SMILES: CC[C@H](C)[C@H](NC(=O)[C@H](CO)NC(=O)[C@H](Cc1ccc(O)cc1)NC(=O)[C@H](CC(=O)O)NC(=O)[C@H](CO)NC(=O)[C@@H](NC(=O)[C@H](Cc1ccccc1)NC(=O)[C@@H](NC(=O)CNC(=O)[C@@H](N)CCC(=O)O)[C@@H](C)O)[C@@H](C)CC)C(=O)N[C@@H](C)C(=O)N[C@@H](CCSC)C(=O)N[C@@H](CC(=O)O)C(=O)N[C@@H](CCCCN)C(=O)N[C@H](C(=O)N[C@@H](CCCCNC(=O)CCCCCCCCCCCCCCC(=O)O)C(=O)N[C@@H](CCC(N)=O)C(=O)N[C@@H](CCC(N)=O)C(=O)N[C@@H](CC(=O)O)C(=O)N[C@@H](Cc1ccccc1)C(=O)N[C@H](C(=O)N[C@@H](CC(N)=O)C(=O)N[C@@H](Cc1c[nH]c2ccccc12)C(=O)N[C@@H](CC(C)C)C(=O)N[C@@H](CC(C)C)C(=O)N[C@@H](C)C(=O)N[C@@H](CCC(N)=O)C(=O)N[C@@H](CCCCN)C(=O)NCC(=O)N[C@@H](CCCCN)C(=O)N[C@@H](CCCCN)C(=O)N[C@@H](CC(N)=O)C(=O)N[C@@H](CC(=O)O)C(=O)N[C@@H](Cc1c[nH]c2ccccc12)C(=O)N[C@@H](CCCCN)C(=O)N[C@@H](Cc1c[nH]cn1)C(=O)N[C@@H](CC(N)=O)C(=O)O)C(C)C)[C@@H](C)CC [mGIPAnt‐1] (H-EGTFISDYSIAMDKIK(C16 diacid)QQDFVNWLLAQKGKKNDWKHN-OH)
- intrinsic activity (activation of human GIP receptor, cAMP) [1]: no activation
- intrinsic activity (activation of mouse GIP receptor, cAMP) [2]: no activation
- final lean body mass ([3]; 300 nmol·kg−1 s.c. daily, 8 weeks): not affected
- body weight, HFD ([3]; 300 nmol·kg−1 s.c. daily, 8 weeks, 60 kcal% HFD, versus Vehicle/HFD, n = 11–12): body weight in the control, HFD group was significantly higher compared to the mGIPAnt‐1/HFD group
- absolute body weight, control diet ([3]; 300 nmol·kg−1 s.c. daily, 8 weeks, control diet, n = 12): not affected
- total body weight gain, overall treatment effect ([3]; 300 nmol·kg−1 s.c. daily, 8 weeks, two‐way ANOVA): reducing total body weight gain
- body fat percentage, HFD ([3]; at 6 and 8 weeks, 300 nmol·kg−1 s.c. daily, versus Control/HFD, n = 6): Control/HFD animals significantly increased body fat percentage compared to mGIPAnt‐1/HFD animals
- BAT weight ([3]; terminal): not affected
- eWAT weight, control diet ([3]; terminal): did not affect
- iWAT weight, control diet ([3]; terminal): did not affect
- liver weight ([3]; terminal): not affected
- eWAT weight, HFD ([3]; terminal, versus Vehicle/HFD): reduced
- iWAT weight, HFD ([3]; terminal, versus Vehicle/HFD): reduced
